Laboratory results reported in US8394426B2, “Composition comprising an extract of hardy kiwi for preventing or treating baldness disorders or seborrheic skin disorders” (Viromed Co., Ltd., priority 2004, dated 2013).

Test system: blood DHT
Experiment: concentration of blood DHT in mice after oral administration, measured by ELISA
Type: in vivo
Conditions: male C57BL/6 mice, oral finasteride 100 μg/mouse/day for 3 weeks, FIG. 4
Description: To confirm the inhibition effect of hardy kiwi extract on the concentration of blood DHT, the water extract and ethanol extract of fruit of Actinidia arguta were administrated into mice and the concentration of blood DHT were determined by following procedure;
Male C57BL/6 mice, aged 6 weeks (Seoul national university animal experimental center) were acclimated to the environment for 1 week. After 1 week, 16 mice were divided into 4 groups and each group was orally administered with 100 μl of the water extract of fruit of Actinidia arguta (1500 μg/mouse/day), 100 μl of the ethanol extract of fruit of Actinidia arguta (1500 μg/mouse/day), 100 μl of finasteride (100 μg/mouse/day), and 100 μl of drinking water (100 μg/mouse/day) for 3 weeks, respectively. After mice were sacrificed and the blood serum and spleen organ were colllected therefrom, the concentration of blood DHT was measured by ELISA (IBL-Hamburg GmbH) method. […]
After 1 week, 8 mice were divided into 2 groups and each group was orally administered with 100 μl of the water extract of dried stem of A. arguta (1500 μg/mouse/day) and 100 μl of drinking water (100 μg/mouse/day) for 3 weeks, respectively. After mice were sacrificed and the blood serum and spleen organ was colllected therefrom, the concentration of blood DHT was measured.

## CC(C)(C)NC(=O)[C@H]1CC[C@H]2[C@@H]3CC[C@H]4NC(=O)C=C[C@]4(C)[C@H]3CC[C@]12C [finasteride]
  decrease of concentration of blood DHT: about 90%
